Read-outs that look alike come from different tables or passages of the source.

This is an account of results in patent publication US20060166907A1, “Composition for the treatment of nasopharyngeal carcinoma and method of use thereof” (priority 2002, published 2006).

The subject of data set [1] is C15 cells. The data set can be described thus: Nuclear morphology, Hoechst 33342 staining, C15 cells. The class given is cell-based, human. To be noted: 48 h to 72 h, doxorubicin 1 μM, Compound A 5 μM. The text has this: FIG. 3. […] A: non-treated cells.
The subject of data set [2] is C15 cells. As to the kind of experiment: PARP cleavage Western blot, C15 cells. The class given is cell-based, human. To be noted: doxorubicin 1 μM, Compound A 5 μM, combination at 24 h. Here is the method: FIG. 5. […] Corresponding cell lysates (50 μg protein per lane) were separated by 7.5% SDS-PAGE and analyzed by Western Blot with an anti-PARP monoclonal antibody. The cleaved product of PARP was at 85 kD, as shown in the positive-control extract derived from C15 cells treated with the CD95 agonist-antibody 7C11.
A general note: In western blotting, separated proteins are transferred to a membrane and probed.

Data set [3] concerns C15 cells. The data set can be described thus: cells. To be noted: Homo sapiens, 72 h, read-out: IC 50, NPC cell viability, C15 Cells.
For data set [4], the system named is farnesyl-transferase in intact MIAPaca cells. The data set can be described thus: Farnesyl-transferase inhibition in intact cells (H-Ras and N-Ras Western blot). The format is cell-based, human. To be noted: 48 h. Here is the method: The effect of Compound A on farnesyl-transferase in intact cells was assayed in MIAPaca cells, a human pancreatic carcinoma cell line which was purchased from the ATCC. Both H-Ras and N-Ras were investigated as reference substrates of the endogenous farnesyl-transferase. Total protein extracts were prepared from MIAPaca cells treated for 48 h with increasing concentrations of Compound A (1-100 nM) along with extracts from untreated cells as a negative control. A positive control was provided by cells treated with mevastatine (30 μM). Mevastatine is an HMG-CoA reductase inhibitor which blocks the synthesis of farnesyl metabolic precursors. Cell extracts were separated by SDS-polyacrylamide gels (15%) and analyzed by Western blot with polyclonal antibodies directed to H-Ras and N-Ras (Santa Cruz, Heidelberg, Germany). Farnesyl-transferase inhibition was assessed indirectly by detection of non-prenylated forms of H-Ras and N-Ras which were slightly shifted toward higher molecular weights and reacted more efficiently with antibodies. Assessment of drug effect on NPC cell viability.

For the next data set, the system named is C666-1 cells. As to the kind of experiment: WST-1 cell viability assay, C666-1 cells. As to conditions: for IC50: read-out: IC 50, NPC cell viability, C666-1 Cells. Here is the method:
Cell viability assays were performed in 96 well plastic microplates, either uncoated (C666-1) or coated with Poly HEMA (C15). For each cell line, the number of cells distributed per well was optimized in order to achieve the highest metabolic activity while keeping exponential growth till the end of the test. C15 and C666-1 cells were seeded at 10^5 and 35×10^3/well, respectively, in 150 μl culture medium. Following an overnight pre-incubation culture, serial dilutions of chemotherapy drugs (50 μl; final concentration 50 nM-50 μM) were added in quadruplicate to a […]. At the completion of a 72 h incubation with tested pharmacological agents, cell viability was evaluated using the WST-1 assay (Roche Molecular, France). The WST-1 assay is based on the cleavage of the tetrazolium salt by mitochondrial dehydrogenases. […] Cells were incubated with 10 μl of the WST-1 reagent added to the culture medium, for 3 to 6 h, at 37° C. The plates were subsequently read on an ELISA reader (Dynatech MR7000, Guernsey channel Island, USA) using a 490 nm filter. The mean and standard deviation were determined for quadruplicate samples. For each compound, values falling in the linear part of sigmoid curve were included in a linear regression analysis and were used to estimate the 50% inhibitory concentration (IC 50). Measurement of caspase activity in drug treated NPC cells.
(Ali, H. et al., Chemotherapy in advanced nasopharyngeal cancer. Oncology (Huntingt), 14:1223-1230, 2000.) Their short term cytotoxic effect was assessed in vitro on the C15 and C666-1 cells, using a cell viability assay based on WST reduction. Cultured cells were incubated in the presence of various concentrations of each therapeutic agent for 72 hours.
Background: Tetrazolium dyes change colour on reduction, which living cells bring about.

Data set [5] deals with C15 cells. As to the kind of experiment: TRAF1 cleavage Western blot, C15 cells. The format is cell-based, human. As to conditions: 24 h, doxorubicin 1 μM, Compound A 5 μM. Here is the method:
FIG. 6. Induction of TRAF1-cleavage in C15 cells treated with doxorubicin combined to Compound A. A: Diagram of Fas-mediated TRAF-1-cleavage as reported by Leo et al. (2001). The locations of target peptides used for production of the H-3 monoclonal and H-132 polyclonal antibody are indicated by hatched boxes. The peptide targeted by H-3 was entirely contained in fragment II whereas the peptide targeted by H132 was mainly co-linear with fragment I. B: C15 cells were treated for 24 h with doxorubicin (1 μM), Compound A […] or a combination of both. Control cells were treated with the Fas-agonist antibody 7C11. Cell lysates (50 μg protein per lane) were separated on a 8-16% SDS-PAGE linear gradient prior to Western Blot analysis with anti-TRAF-1 antibodies. Both antibodies detected a main band at 46 kd Additional bands corresponding to fragments of smaller sizes were visible, mainly in samples treated with 7C11 or the combination of doxorubicin and Compound A. In the extracts of cells treated with 7C11, these smaller fragments had apparent molecular weights of 29 kD (H-3) and 24 kD (H-132) which were compatible with the sizes of TRAF1 fragments reported by Leo et al. (2001). Similar results were obtained in three similar experiments.

Data set [6] addresses T1, GGTase I from human brain (Homo sapiens, UniProt P49354+P53609).
T1 construct: GGTase I from human brain; purchased ABS reagent; host or cells: human brain (tissue-derived, not recombinant)
As to the kind of experiment: In vitro GGTase I assay ([3H]-geranylgeranylation of H-Ras CVLL). The format is biochemical. To be noted: read-out: Enzyme assays IC50 GGTase I. Here is the method: (§1) The effect of Compound A and other drugs on FTase activity was assayed in vitro with FTase from human brain cytosol (ABS Reagents, Wilmington, Del.) as target enzyme and recombinant human H-Ras protein containing the wild type CAAX box (Biomol, Plymouth Meeting, Pa.) as a specific substrate. The incubation mixture (25 μl) for [^3H]-farnesylation contained 50 mM Tris-HCl (pH 7.5), 5 mM dithiothreitol, 20 μM ZnCl2, 40 mM MgCl2, 0.6 μM [^3H]-farnesyl pyrophosphate (22.3 Ci/mmol) (NEN, Boston, Mass.), 4 μM recombinant H-Ras and 10 μg FTase. After 60 min at 37° C., the reaction was stopped by adding 150 μl of absolute ethanol. The mixture was then filtered on Unifilter GF/B microplate (Packard, Rungis, France) and washed 6 times with ethanol prior to scintillation counting. After adding 50 μl of Microscint 0, plates were counted with a Packard Top Count scintillation counter. Drug effects on GGTase I activity were assayed by a similar method with GGTase I from human brain (ABS reagent) as target enzyme and human recombinant H-Ras containing a mutated CAAX box (CVLL)(Biomol). The incubation mixture contained 4 μM recombinant H-Ras, 0.6 μM [^3H]-geranylgeranyl-pyrophosphate (19.3 Ci/mmol) (NEN) and 100 μg of GGTase I. GGTI-286 was used as a positive control for the GGTase-I inhibition assay. Results were expressed as the concentrations of drugs required to inhibit 50% of prenyl-incorporation into the recombinant H-Ras proteins (IC50). Assessment of farnesyl-transferase inhibition in intact cells.

Data set [7] deals with T2, FTase from human brain cytosol (Homo sapiens, UniProt P49354+P49356).
T2 construct: FTase from human brain cytosol; purchased ABS Reagents, Wilmington, Del; host or cells: human brain cytosol (tissue-derived, not recombinant)
The data set can be described thus: In vitro FTase assay ([3H]-farnesylation of H-Ras). The format is biochemical. To be noted: mean of 2 experiments (lowest-highest); read-out: Enzyme assays IC50 FTase. Here is the method:
as §1

Data set [8] concerns C15 cells. To be noted: for IC50: read-out: IC 50, NPC cell viability, C15 Cells, 72 h incubation, WST-1, PolyHEMA-coated plates.
In data set [9] the test system is TWO1 and TWO39 NPC cell lines. To be noted: TWO1 and TWO39, EBV-negative lines; cited from earlier work.
Another data set deals with CNE1 NPC cell line. As to conditions: CNE1, EBV-negative line; cited from earlier work.
The mark [10] stands for this setting: mean of 2 experiments (lowest-highest).

Turning to `COc1cc(Cn2cncc2CC(=O)N2Cc3nc(-c4ccccc4Br)cn3Cc3c(F)cccc32)ccc1C#N` [Compound A], the “nuclear apoptosis morphological changes” value in the data set with C15 cells [1] is “much less apparent”. Besides, in the data set on C15 cells [2], the PARP cleavage entry was “Moderate PARP cleavage”. In addition, the IC50 is 10 µM in the data set on C15 cells [3]; 10 µM in the data set on C666-1 cells (Homo sapiens, C6661, 72 h); > 100 µM in [6]; 0.015 µM in data set [7]. Moreover, the “concentration giving significant inhibition of H-Ras and N-Ras farnesylation” value in data set [4] amounted to 50 nM. The TRAF1 cleavage result with C15 cells [5] was “no modifications”.
Turning to `CC(=O)O[C@H]1C(=O)[C@@]2(C)[C@H]([C@H](OC(=O)c3ccccc3)[C@]3(O)C[C@H](OC(=O)[C@H](O)[C@@H](NC(=O)c4ccccc4)c4ccccc4)C(C)=C1C3(C)C)[C@]1(OC(C)=O)CO[C@@H]1C[C@@H]2O` [Taxol], the “sensitivity to short term cytotoxic effect” value with C15 cells [8] is given as “totally resistant”; with C666-1 cells, “highly sensitive”. In addition, the “effect on NPC cell lines” value in data set [9] is on record as “induce growth arrest and/or apoptosis”. The IC50 is ≥ 25 µM with C15 cells [3] and 0.2 µM in the data set on C666-1 cells (Homo sapiens, C6661, 72 h).
Take `O=c1[nH]cc(F)c(=O)[nH]1` [5-fluorouracyl]: the “sensitivity to short term cytotoxic effect” value with C15 cells [8] and in the data set with C666-1 cells was “No significant effects” throughout. Besides, the IC50 is ≥ 5 µM in the data set on C15 cells [8] and ≥ 5 µM with C666-1 cells (72 h incubation, WST-1).
On to `CC[C@H](C)[C@@H](CN1CSC(C)(C)[C@H]1C(=O)N[C@@H](CCSC)C(=O)OC)NC[C@@H](N)CS` [BIM-46068], for which the results for the IC50 in data set [6] (setting [10]) and in [7] were 268 µM and 0.091 µM, respectively.
As for `COC(=O)[C@H](CCSC)NC(=O)c1ccc(NC[C@@H](N)CS)cc1-c1ccccc1` [FTI-277], the figures for the IC50 in [6] (setting [10]) and in data set [7] were 0.314 µM and 0.03 µM, respectively.
Consider `COC(=O)[C@H](CC(C)C)NC(=O)c1ccc(NC[C@@H](N)CS)cc1-c1ccccc1` [GGTI-286], for which the IC50 is 0.114 µM in data set [6] (setting [10]) and 0.365 µM in data set [7].
On to `COc1cccc2c1C(=O)c1c(O)c3c(c(O)c1C2=O)C[C@@](O)(C(=O)CO)C[C@@H]3O[C@H]1C[C@H](N)[C@H](O)[C@H](C)O1` [Doxorubicin, doxorubicin], for which the “nuclear apoptosis morphological changes” value with C15 cells [1] is listed as “much less apparent”. Further, the PARP cleavage result in the data set on C15 cells [2] is “Moderate PARP cleavage”. In addition, the IC50 was determined as 0.15 µM in the data set on C15 cells [3] and 0.2 µM in the data set with C666-1 cells (Homo sapiens, C6661, 72 h). In the data set on C15 cells [5], the TRAF1 cleavage entry was “no modifications”.
Regarding `N.N.[Cl][Pt][Cl]` [Cis-platinum, cis-platin], in the data set with CNE1 NPC cell line, the “concentration inducing growth arrest” value is “about 1 μM”. Moreover, in the data set on C15 cells [8], the “enhancement of cytotoxicity by combination with Compound A” value is given as “not observed” and the IC50 was 1 µM. Further, in the data set on C666-1 cells (72 h incubation, WST-1), the IC50 was 5 µM.
